Measurements from PubChem BioAssay AID1963445 (Molecular Pharmacology Branch, DTP, NCI, 2024).

Test system: MCF7 complex spheroid growth, % test/control
Assay: Anticancer human tumor MCF7 cell line growth inhibition [Asc];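 also: spheroids exposed to compounds for 7 days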;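 as to viability, T/C: 100% = DMSO vehicle control wells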
Details: for IC50: curve of first compound; for viability, T/C: stronger effect = lower value
Method: Multicellular complex tumor spheroid response to apoptosis pathway targeting inhibitors Alrizomadlin, Pelcitoclax, and Dasminapant in combination with a variety of drugs and investigational agents in selected tumor cell lines
The MDM2 inhibitor alrizomadlin, the Bcl-2/Bcl-xL inhibitor pelcitoclax, and the IAPs inhibitor dasminapant were evaluated both individually and in combination with standard of care and investigational anticancer small molecules within a complex spheroid model of solid tumors. . Complex spheroids include a stromal component modeled by human endothelial cells (HUVEC) and fibroblasts modeled by human mesenchymal stem cells (MSCs). The concentration ranges selected for each drug and investigational agent were based upon clinically achievable concentrations if the clinical Cmax of the agent was known.
Compounds. The drugs and investigational agents: alrizomadlin (APG-115; NSC831270), pelcitoclax (APG-1252; NSC835773), dasminapant (APG-1387;NSC834197), TAK-243 (NSC785004), copanlisib (NSC809693), olaparib (NSC753686), talazoparib (NSC767125), cobimetinib (NSC 768068), eltanexor (KPT-8602, NSC 794443), abemaciclib (NSC 768073), sotorasib (NSC818433), adagrasib (NSC 831453), MRTX-1133 (NSC 836407), Iadademestat (ORY1001, NSC 806812), and RMC-4630 (NSC839698), were obtained from the NCI Developmental Therapeutics Program Chemical Repository. The FDA-approved anticancer drug set is available from the Developmental Therapeutics Program at https://dtp.cancer.gov/organization/dscb/obtaining/available plates.htm. […] The stock solutions were prepared in dimethyl sulfoxide (DMSO, Sigma-Aldrich, St. Louis, MO, cat. D2650) at 800-fold the tested concentration and stored at -70 degrees C prior to their use. All drugs and investigational agents were tested over a range starting from a high concentration at or near the clinical Cmax and decreasing in half-log increments. If the clinical Cmax for an agent had not been determined, the highest concentration tested was 10 microM.
The patient-derived cancer (PDC) cell lines include five colon adenocarcinomas: 186277-243-T-J2-PDC, 616215-338-R-J1-PDC, 439559-082-T-J2-PDC, 463943-066-T-J2-PDC, and 519858-162-T-J1-PDC; three pancreatic carcinomas: 323965-272-R-J2-PDC, 521955-158-R6-J3-PDC, and 521955-158-R2-J5-PDC; two uterine sarcomas: 327498-152-R-J2-PDC and 993429-296-R-J1-PDC; two rhabdomyosarcomas: 755483-174-R-J1-PDC and 772245-204-R-J1-PDC; two soft tissue sarcomas: 126254-015-R-J1-PDC and 494315-158-R-J1-PDC; two malignant fibrous histiocytomas: 317291-083-R-J1-PDC and 596521-263-R-J1-PDC; two breast carcinomas: 171881-019-R-J1-PDC and 885512-296-R-J2-PDC; and one ovarian carcinoma: 6556581-035-R-J-PDC were obtained from the NCI PDMR, (https://pdmr.cancer.gov). The established cell lines HSSY-2 synovial sarcoma (RRID:CVCL 8719), SYO-1 synovial sarcoma (RRID:CVCL_7146), MPNST malignant peripheral neural sheath tumor were obtained from the Sloan Kettering Institute. The following established cell lines were purchased from the American Type Culture Collection (ATCC, Manassas, VA), Sor the received from the NCI repository:, PANC-1 pancreatic carcinoma (CRL-1469, RRID:CVCL_0480), OVCAR-5 ovarian carcinoma (RRID:CVCL_1628), OVCAR-8 ovarian carcinoma (RRID:CVCL_1629), , MCF-7 breast carcinoma (CRL-12584, RRID:CVCL_0031), MDA-MB-231 breast carcinoma (CRL-12532, RRID:CVCL_0062), NCI-H1876 small cell lung carcinoma (CRL-5902, RRID:CVCL_1503), NCI-H510A small cell lung carcinoma (HTB-184, RRID:CVCL_1565), NCI-H1417 (CRL-5869, RRID:CVCL_1469), and NCI-H196 small cell lung carcinoma (CRL-5823, RRID:CVCL_1509). Dr. Peter Houghton (Greehey Children's Cancer Research Institute, University of Texas Health Science Center, San Antonio, TX) provided Rh-18 rhabdomyosarcoma (RRID:CVCL_1659). Pooled donor human umbilical vein endothelial cells (HUVEC, Lonza, cat. CC-2519) and human mesenchymal stem cells (hMSC, Lonza, cat. PT-2501) were purchased from Lonza (Walkersville, MD).
Cell Culture. […]

[1] = second compound 0.00949 µM, first compound 0.0316 µM
[2] = second compound 0.00949 µM, first compound 0.1 µM
[3] = second compound 0.03 µM, first compound 0.0316 µM
[4] = second compound 0.03 µM, first compound 0.1 µM
[5] = second compound 0.0949 µM, first compound 0.0316 µM
[6] = second compound 0.0949 µM, first compound 0.1 µM
[7] = second compound 0.3 µM, first compound 0.0316 µM
[8] = second compound 0.3 µM, first compound 0.1 µM
[9] = second compound 0.949 µM, first compound 0.0316 µM
[10] = second compound 0.949 µM, first compound 0.1 µM
[11] = second compound 3 µM, first compound 0.0316 µM
[12] = second compound 3 µM, first compound 0.1 µM

Q: `Cn1ncnc1[C@H]1c2n[nH]c(=O)c3cc(F)cc(c23)N[C@@H]1c1ccc(F)cc1` + CCN1C(C(=O)NC23CCC(C(=O)O)(CC2)CC3)C(c2cccc(Cl)c2F)C2(C(=O)Nc3cc(Cl)ccc32)C12CCCCC2 was tested. Which IC50 (second compound 0.00949 µM) did it give?
A: > 100 nM

Q: What about the IC50 (second compound 0.03 µM) of the same compound?
A: > 100 nM

Q: What about the IC50 (second compound 0.0949 µM) of the same compound?
A: 1.99 nM

Q: What about the IC50 (second compound 0.3 µM) of the same compound?
A: < 0.316 nM

Q: And the IC50 (second compound 0.949 µM)?
A: < 0.316 nM

Q: And the IC50 (second compound 3 µM)?
A: < 0.316 nM

Q: And the viability, T/C (second compound 0.00949 µM, first compound 0.000316 µM)?
A: 121%

Q: What about the viability, T/C (second compound 0.00949 µM, first compound 0.001 µM) of the same compound?
A: 98.8%

Q: And the viability, T/C (second compound 0.00949 µM, first compound 0.00316 µM)?
A: 116%

Q: What about the viability, T/C (second compound 0.00949 µM, first compound 0.01 µM) of the same compound?
A: 73.1%

Q: And the viability, T/C [1]?
A: 92.4%

Q: What about the viability, T/C [2] of the same compound?
A: 67%

Q: And the viability, T/C (second compound 0.03 µM, first compound 0.000316 µM)?
A: 67.4%

Q: And the viability, T/C (second compound 0.03 µM, first compound 0.001 µM)?
A: 96.7%

Q: What about the viability, T/C (second compound 0.03 µM, first compound 0.00316 µM) of the same compound?
A: 75.8%

Q: And the viability, T/C (second compound 0.03 µM, first compound 0.01 µM)?
A: 77.6%

Q: And the viability, T/C [3]?
A: 55.1%

Q: What about the viability, T/C [4] of the same compound?
A: 51%

Q: What about the viability, T/C (second compound 0.0949 µM, first compound 0.000316 µM) of the same compound?
A: 51.9%

Q: What about the viability, T/C (second compound 0.0949 µM, first compound 0.001 µM) of the same compound?
A: 56.7%

Q: What about the viability, T/C (second compound 0.0949 µM, first compound 0.00316 µM) of the same compound?
A: 52.3%

Q: What about the viability, T/C (second compound 0.0949 µM, first compound 0.01 µM) of the same compound?
A: 38.8%

Q: What about the viability, T/C [5] of the same compound?
A: 37.7%

Q: And the viability, T/C [6]?
A: 37%

Q: And the viability, T/C (second compound 0.3 µM, first compound 0.000316 µM)?
A: 35.9%

Q: What about the viability, T/C (second compound 0.3 µM, first compound 0.001 µM) of the same compound?
A: 29.8%

Q: And the viability, T/C (second compound 0.3 µM, first compound 0.00316 µM)?
A: 29.7%

Q: What about the viability, T/C (second compound 0.3 µM, first compound 0.01 µM) of the same compound?
A: 32.9%

Q: And the viability, T/C [7]?
A: 26.1%

Q: And the viability, T/C [8]?
A: 29.1%

Q: What about the viability, T/C (second compound 0.949 µM, first compound 0.000316 µM) of the same compound?
A: 21.5%

Q: What about the viability, T/C (second compound 0.949 µM, first compound 0.001 µM) of the same compound?
A: 23.1%

Q: And the viability, T/C (second compound 0.949 µM, first compound 0.00316 µM)?
A: 16.4%

Q: And the viability, T/C (second compound 0.949 µM, first compound 0.01 µM)?
A: 15.9%

Q: And the viability, T/C [9]?
A: 20.8%

Q: And the viability, T/C [10]?
A: 18.4%

Q: What about the viability, T/C (second compound 3 µM, first compound 0.000316 µM) of the same compound?
A: 15.6%

Q: And the viability, T/C (second compound 3 µM, first compound 0.001 µM)?
A: 17.2%

Q: What about the viability, T/C (second compound 3 µM, first compound 0.00316 µM) of the same compound?
A: 15.5%

Q: And the viability, T/C (second compound 3 µM, first compound 0.01 µM)?
A: 13.1%

Q: What about the viability, T/C [11] of the same compound?
A: 13.9%

Q: What about the viability, T/C [12] of the same compound?
A: 14.6%

Q: `O=C(c1cc(Cc2n[nH]c(=O)c3ccccc23)ccc1F)N1CCN(C(=O)C2CC2)CC1` + CCN1C(C(=O)NC23CCC(C(=O)O)(CC2)CC3)C(c2cccc(Cl)c2F)C2(C(=O)Nc3cc(Cl)ccc32)C12CCCCC2 was tested. Which IC50 (second compound 0.00949 µM) did it give?
A: > 10000 nM

Q: What about the IC50 (second compound 0.03 µM) of the same compound?
A: > 10000 nM

Q: What about the IC50 (second compound 0.0949 µM) of the same compound?
A: < 31.6 nM

Q: And the IC50 (second compound 0.3 µM)?
A: < 31.6 nM

Q: What about the IC50 (second compound 0.949 µM) of the same compound?
A: < 31.6 nM

Q: What about the IC50 (second compound 3 µM) of the same compound?
A: < 31.6 nM

Q: And the viability, T/C [1]?
A: 133%

Q: And the viability, T/C [2]?
A: 96.8%

Q: And the viability, T/C (second compound 0.00949 µM, first compound 0.316 µM)?
A: 107%

Q: What about the viability, T/C (second compound 0.00949 µM, first compound 1 µM) of the same compound?
A: 106%

Q: And the viability, T/C (second compound 0.00949 µM, first compound 3.16 µM)?
A: 92.3%

Q: What about the viability, T/C (second compound 0.00949 µM, first compound 10 µM) of the same compound?
A: 73%

Q: What about the viability, T/C [3] of the same compound?
A: 85.6%

Q: What about the viability, T/C [4] of the same compound?
A: 81.5%

Q: And the viability, T/C (second compound 0.03 µM, first compound 0.316 µM)?
A: 87%

Q: What about the viability, T/C (second compound 0.03 µM, first compound 1 µM) of the same compound?
A: 86%

Q: What about the viability, T/C (second compound 0.03 µM, first compound 3.16 µM) of the same compound?
A: 74.2%

Q: And the viability, T/C (second compound 0.03 µM, first compound 10 µM)?
A: 62.2%

Q: And the viability, T/C [5]?
A: 46.7%

Q: What about the viability, T/C [6] of the same compound?
A: 47.4%

Q: What about the viability, T/C (second compound 0.0949 µM, first compound 0.316 µM) of the same compound?
A: 51.4%

Q: What about the viability, T/C (second compound 0.0949 µM, first compound 1 µM) of the same compound?
A: 45.5%

Q: And the viability, T/C (second compound 0.0949 µM, first compound 3.16 µM)?
A: 38.9%

Q: And the viability, T/C (second compound 0.0949 µM, first compound 10 µM)?
A: 44.5%

Q: What about the viability, T/C [7] of the same compound?
A: 34.3%

Q: What about the viability, T/C [8] of the same compound?
A: 30.3%

Q: What about the viability, T/C (second compound 0.3 µM, first compound 0.316 µM) of the same compound?
A: 32.8%

Q: And the viability, T/C (second compound 0.3 µM, first compound 1 µM)?
A: 30.6%

Q: What about the viability, T/C (second compound 0.3 µM, first compound 3.16 µM) of the same compound?
A: 29.4%

Q: What about the viability, T/C (second compound 0.3 µM, first compound 10 µM) of the same compound?
A: 29%

Q: And the viability, T/C [9]?
A: 21%

Q: What about the viability, T/C [10] of the same compound?
A: 22.7%

Q: What about the viability, T/C (second compound 0.949 µM, first compound 0.316 µM) of the same compound?
A: 21.5%

Q: And the viability, T/C (second compound 0.949 µM, first compound 1 µM)?
A: 21.6%

Q: And the viability, T/C (second compound 0.949 µM, first compound 3.16 µM)?
A: 25.7%

Q: And the viability, T/C (second compound 0.949 µM, first compound 10 µM)?
A: 19.6%

Q: What about the viability, T/C [11] of the same compound?
A: 13.7%

Q: And the viability, T/C [12]?
A: 16.2%

Q: And the viability, T/C (second compound 3 µM, first compound 0.316 µM)?
A: 14.4%

Q: And the viability, T/C (second compound 3 µM, first compound 1 µM)?
A: 14.9%

Q: What about the viability, T/C (second compound 3 µM, first compound 3.16 µM) of the same compound?
A: 18.9%

Q: What about the viability, T/C (second compound 3 µM, first compound 10 µM) of the same compound?
A: 15.9%
